Patent US20120058499A1, “Bioluminescent Detection of Protease Activity” (priority 2010, published 2012)

Key:
Type in all cases: biochemical
[1] = target: T1, USP8 (Homo sapiens, UniProt P40818); assay: Isopeptidase cleavage of substrates (DUB-Glo luminescence / fluorescence), S/B; details: USP8 0.5 nM
T1 sequence (P40818 1-1118): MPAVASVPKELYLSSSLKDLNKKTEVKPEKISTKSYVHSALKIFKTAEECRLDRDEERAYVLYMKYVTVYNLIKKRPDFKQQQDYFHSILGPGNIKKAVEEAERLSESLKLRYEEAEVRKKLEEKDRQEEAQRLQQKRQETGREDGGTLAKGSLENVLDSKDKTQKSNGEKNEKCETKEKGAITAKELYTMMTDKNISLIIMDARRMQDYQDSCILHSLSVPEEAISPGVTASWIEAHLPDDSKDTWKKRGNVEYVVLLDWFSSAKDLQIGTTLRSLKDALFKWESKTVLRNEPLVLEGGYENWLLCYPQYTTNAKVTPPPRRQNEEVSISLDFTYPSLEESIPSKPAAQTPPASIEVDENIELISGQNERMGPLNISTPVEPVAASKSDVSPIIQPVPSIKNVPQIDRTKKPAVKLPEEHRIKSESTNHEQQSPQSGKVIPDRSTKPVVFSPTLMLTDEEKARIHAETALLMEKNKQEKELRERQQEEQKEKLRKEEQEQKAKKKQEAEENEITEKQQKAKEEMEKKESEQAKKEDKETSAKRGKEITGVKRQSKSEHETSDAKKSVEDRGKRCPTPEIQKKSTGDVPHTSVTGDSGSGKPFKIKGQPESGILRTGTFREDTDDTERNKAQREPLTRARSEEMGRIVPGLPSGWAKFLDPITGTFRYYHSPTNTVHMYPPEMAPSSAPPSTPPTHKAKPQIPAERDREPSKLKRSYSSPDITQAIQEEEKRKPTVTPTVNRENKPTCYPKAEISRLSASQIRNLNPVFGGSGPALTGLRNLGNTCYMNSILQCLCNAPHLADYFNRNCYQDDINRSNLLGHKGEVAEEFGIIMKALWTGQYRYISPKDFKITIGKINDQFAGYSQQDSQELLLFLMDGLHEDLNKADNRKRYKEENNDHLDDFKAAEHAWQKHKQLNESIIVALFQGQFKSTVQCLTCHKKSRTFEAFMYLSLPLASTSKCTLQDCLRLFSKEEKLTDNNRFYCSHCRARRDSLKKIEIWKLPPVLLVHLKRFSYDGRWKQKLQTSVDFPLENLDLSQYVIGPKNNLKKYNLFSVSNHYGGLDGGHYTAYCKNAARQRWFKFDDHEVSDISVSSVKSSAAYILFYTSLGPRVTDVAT
Protocol: (§1) The Ub-amino-luciferin substrate was compared to the Z-Arg-Leu-Arg-Gly-Gly (SEQ ID NO: 1)-amino-luciferin substrate (Promega DUB-Glo™ substrate) to determine the limit of detection of the activities of four different isopeptidases (UCHL3, USP2core, USP7, and USP8). For all enzymes, these two substrates were tested in parallel using the DUB-Glo™ assay system (Promega) according to the manufacturer's instructions. All enzymes were diluted into 50 mM HEPES, pH 7.5, 10 mM DTT, 0.1% Prionex (Sigma-Aldrich). For testing Z-Arg-Leu-Arg-Gly-Gly (SEQ ID NO: 1)-amino-luciferin, final isopeptidase concentrations were as follows: UCHL3 equal to approximately 0.35 to 50 nM; USP2core equal to approximately 10 to 500 nM, USP7 equal to approximately 0.1 to 50 nM, and USP8 equal to approximately 20 to 500 nM. For testing Ub-amino-luciferin, final isopeptidase concentrations were as follows: UCHL3 equal to approximately 0.05 to 50 pM; USP2core, USP7, and USP8 equal to approximately 0.5 to 500 pM. Reactions were assembled through addition of 50 μl of diluted enzyme and 50 μl of DUB-Glo™ reaction mixture supplemented with either Z-Arg-Leu-Arg-Gly-Gly (SEQ ID NO: 1)-amino-luciferin (final concentration of 20 μM) or Ub-amino-luciferin (final concentration of 100 nM). The signal in relative luminescence units (RLUs) was measured at 30 minutes from reaction assembly on an Envision multi-label plate reader (Perkin Elmer). The signal to background ratio (S/B) was calculated as (maximum signal−signal in absence of enzyme)/(signal in absence of enzyme).
(§2) The Ub-amino-luciferin (Ub-LUC) substrate was compared to the Ub-AMC substrate (FIG. 3) and the Ub-Rhodamine110 (Ub-Rho) substrate (FIG. 4), to determine the limit of detection for the activities of four different isopeptidases (UCHL3, USP2core, USP7, and USP8). All enzymes were diluted into 50 mM Tris, pH 8.0, 5 mM DTT, 0.05% (w/v) CHAPS. Final isopeptidase concentrations were as follows: UCHL3 equal to approximately 2 pM to 40 pM; USP2core, USP7, and USP8 were equal to approximately 10 to 1000 nM. Either Ub-AMC or Ub-Rhodamine110 (final concentration equal to 250 nM) were diluted into 50 mM Tris, pH 8.0, 5 mM DTT, 0.05% (w/v) CHAPS. Reactions were assembled through the addition of 50 μl diluted isopeptidase to 50 μl of either Ub-AMC or Ub-Rhodamine110, and the signal in relative fluorescence units (RFUs) was measured at 30 minutes on an Envision multi-label plate reader (Perkin Elmer). For Ub-AMC, fluorescence was monitored with filters corresponding to excitation at 340 nm and emission at 460 nm. For Ub-Rhodamine110, fluorescence was monitored with filters corresponding to excitation at 485 nm and emission at 531 nm. The signal to background (S/B) was calculated as (maximum signal−signal in absence of enzyme)/(signal in absence of enzyme).

[2] = target: T2, USP2core (Homo sapiens, UniProt O75604); assay: as above; details: USP2core 0.5 nM
T2 construct: USP2core (the common catalytic core domain of the two isoforms of USP2, USP2a and USP2b)
T2 sequence (O75604 267-599 limits assumed): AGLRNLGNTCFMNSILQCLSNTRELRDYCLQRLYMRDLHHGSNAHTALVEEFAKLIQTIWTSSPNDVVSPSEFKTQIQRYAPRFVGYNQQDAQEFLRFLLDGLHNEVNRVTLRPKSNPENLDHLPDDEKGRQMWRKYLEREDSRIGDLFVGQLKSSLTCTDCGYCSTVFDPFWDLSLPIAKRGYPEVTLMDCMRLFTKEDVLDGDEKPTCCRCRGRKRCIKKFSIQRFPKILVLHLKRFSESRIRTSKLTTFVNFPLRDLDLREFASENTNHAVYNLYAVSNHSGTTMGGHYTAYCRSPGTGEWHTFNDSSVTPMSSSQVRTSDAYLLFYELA
Protocol: as §1, §2

[3] = target: USP7 (Homo sapiens, UniProt Q93009); assay: as above; details: USP7 0.5 nM
Protocol: as §1, §2

[4] = test system: UCHL3, USP2core, USP7, and USP8; assay: Limit of detection for four isopeptidases, Ub-LUC vs Ub-AMC and Ub-Rhodamine110; details: the four enzymes
Protocol: The Ub-amino-luciferin substrate was compared to the Z-Arg-Leu-Arg-Gly-Gly (SEQ ID NO: 1)-amino-luciferin substrate (Promega DUB-Glo™ substrate) to determine the limit of detection of the activities of four different isopeptidases (UCHL3, USP2core, USP7, and USP8). For all enzymes, these two substrates were tested in parallel using the DUB-Glo™ assay system (Promega) according to the manufacturer's instructions. All enzymes were diluted into 50 mM HEPES, pH 7.5, 10 mM DTT, 0.1% Prionex (Sigma-Aldrich). […] The signal in relative luminescence units (RLUs) was measured at 30 minutes from reaction assembly on an Envision multi-label plate reader (Perkin Elmer). The signal to background ratio (S/B) was calculated as (maximum signal−signal in absence of enzyme)/(signal in absence of enzyme).
The Ub-amino-luciferin (Ub-LUC) substrate was compared to the Ub-AMC substrate (FIG. 3) and the Ub-Rhodamine110 (Ub-Rho) substrate (FIG. 4), to determine the limit of detection for the activities of four different isopeptidases (UCHL3, USP2core, USP7, and USP8). […] Reactions were assembled through the addition of 50 μl diluted isopeptidase to 50 μl of either Ub-AMC or Ub-Rhodamine110, and the signal in relative fluorescence units (RFUs) was measured at 30 minutes on an Envision multi-label plate reader (Perkin Elmer). […]

Sequence of USP7 (Q93009 whole entry, species assumed): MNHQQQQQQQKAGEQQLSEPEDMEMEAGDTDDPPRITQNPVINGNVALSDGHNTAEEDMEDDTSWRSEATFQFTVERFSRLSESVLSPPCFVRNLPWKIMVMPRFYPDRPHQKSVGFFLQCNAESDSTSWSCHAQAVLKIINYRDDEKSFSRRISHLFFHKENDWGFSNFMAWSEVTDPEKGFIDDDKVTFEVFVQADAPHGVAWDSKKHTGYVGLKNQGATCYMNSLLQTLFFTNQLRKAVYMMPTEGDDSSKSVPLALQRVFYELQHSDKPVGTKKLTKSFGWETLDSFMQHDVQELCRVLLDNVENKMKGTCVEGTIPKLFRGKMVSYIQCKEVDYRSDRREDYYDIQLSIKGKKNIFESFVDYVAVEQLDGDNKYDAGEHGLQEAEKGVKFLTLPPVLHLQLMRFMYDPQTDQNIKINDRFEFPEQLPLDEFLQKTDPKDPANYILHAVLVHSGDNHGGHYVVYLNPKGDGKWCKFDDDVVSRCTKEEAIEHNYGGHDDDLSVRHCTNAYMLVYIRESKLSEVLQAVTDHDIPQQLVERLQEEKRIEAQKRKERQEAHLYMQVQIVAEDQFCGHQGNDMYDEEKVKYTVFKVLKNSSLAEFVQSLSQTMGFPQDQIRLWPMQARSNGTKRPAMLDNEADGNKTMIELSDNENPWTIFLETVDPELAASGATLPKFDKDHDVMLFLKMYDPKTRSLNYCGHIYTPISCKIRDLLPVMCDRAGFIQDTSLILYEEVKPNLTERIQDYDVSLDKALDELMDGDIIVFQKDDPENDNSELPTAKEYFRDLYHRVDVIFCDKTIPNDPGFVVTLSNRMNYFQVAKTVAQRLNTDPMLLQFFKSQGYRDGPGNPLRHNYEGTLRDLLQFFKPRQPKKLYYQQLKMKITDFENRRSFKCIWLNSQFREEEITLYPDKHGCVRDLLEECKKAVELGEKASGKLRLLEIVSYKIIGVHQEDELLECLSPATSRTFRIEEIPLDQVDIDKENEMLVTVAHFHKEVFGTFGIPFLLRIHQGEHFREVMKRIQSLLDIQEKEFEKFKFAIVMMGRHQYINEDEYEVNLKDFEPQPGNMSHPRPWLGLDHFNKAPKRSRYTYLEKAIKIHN

S/B increase relative to both Ub-AMC and Ub-Rhodamine110 [1]: ~100 fold
S/B increase relative to both Ub-AMC and Ub-Rhodamine110 [2]: ~100 fold
S/B increase relative to both Ub-AMC and Ub-Rhodamine110 [3]: ~100 fold
Substance: Ub(1-76)-aminoluciferin [Ub-LUC]
fold greater S/B compared to Ub-rhodamine110 [4]: more than 30 fold
limit of detection (S/B>3) increased over Ub-rhodamine110 [4]: more than 30 fold
